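The compound was tested at five concentrations on cells cultured in 96-well plates, with a 48-hour exposure period. At the GI50, growth is halved. TGI denotes the concentration required for complete inhibition of growth.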
Tests used:
Test in all cases: inhibition of tumour cell growth, NCI panel, 48 h
[1] = tested on: RPMI-8226 leukemia
[2] = tested on: SK-MEL-5 melanoma
[3] = tested on: UO-31 renal
[4] = tested on: EKVX NSCLC
[5] = tested on: OVCAR-5 ovarian
[6] = tested on: CAKI-1 renal
[7] = tested on: ACHN renal
[8] = tested on: SR leukemia
[9] = tested on: MOLT-4 leukemia
[10] = tested on: SN12C renal

SMILES | TGI [1] [µM] | TGI [2] [µM] | TGI [3] [µM] | TGI [4] [µM] | TGI [5] [µM] | TGI [6] [µM] | TGI [7] [µM] | TGI [8] [µM] | TGI [9] [µM] | TGI [10] [µM] | GI50 [2] [µM] | GI50 [3] [µM] | GI50 [4] [µM] | GI50 [5] [µM] | GI50 [6] [µM] | GI50 [10] [µM] | GI50 [9] [µM]
CC1=NN(c2cccc(Cl)c2)C2(C1=Cc1ccc(N(C)C)cc1)C(Cl)C(=O)N2c1nc2ccccc2s1 (configuration not stated) | > 100 | > 100 | > 100 | > 100 | > 100 | > 100 | > 100 | > 100 | > 100 | – | – | – | – | – | – | – | –
CSc1ncnc2c1cnn2Cc1cn(COCC(O)CO)nn1 (configuration not stated) | > 100 | > 100 | > 100 | > 100 | > 100 | > 100 | > 100 | > 100 | > 100 | > 100 | – | – | – | – | – | – | –
CC(=O)Nc1ccc2c(c1)nc1c3ccccc3ccn21 | – | > 100 | > 100 | > 100 | > 100 | > 100 | > 100 | > 100 | > 100 | > 100 | – | – | – | – | – | – | –
CC(=O)OC1COC(N2c3ccccc3[C@@H]3CCc4c([nH]c5ccccc45)[C@@H]32)C(OC(C)=O)C1OC(C)=O (mixture of isomers) | > 100 | > 100 | > 100 | > 100 | > 100 | > 100 | – | > 100 | > 100 | > 100 | – | – | – | – | – | – | –
CC(C)NC(=O)OCc1c(COC(=O)NC(C)C)n(C)c2c1ccc1cc(Cl)c(Cl)cc12 | 39.5 | 30.1 | 32.8 | 41.9 | 29.4 | 12.6 | 24 | 30.6 | 27.9 | – | – | – | – | – | – | – | –
Oc1ccc(C[C@@H]2CN[C@H](Cc3ccc(O)c(Br)c3)CN2)cc1 | – | – | > 100 | > 100 | > 100 | > 100 | > 100 | > 100 | > 100 | > 100 | – | – | – | – | – | – | –
C[C@@H](CCO)OC1OC(COC(=O)C(C)(C)C)C(OC(=O)C(C)(C)C)C(OC(=O)C(C)(C)C)C1OC(=O)C(C)(C)C (some centres not stated) | 81.8 | 58.1 | – | > 100 | > 100 | > 100 | > 100 | > 100 | > 100 | > 100 | – | – | – | – | – | – | –
CC(C)(C)[Si](C)(C)OC1CCOC1(O)c1ccccn1 (configuration not stated) | > 100 | > 100 | > 100 | > 100 | > 100 | > 100 | > 100 | – | > 100 | > 100 | – | – | – | – | – | – | –
CCOC(=O)c1c(-c2ccc(OC)cc2)c(C#N)c(=S)n(C2OC(CO)C(O)C(O)C2O)c1C (configuration not stated) | – | > 100 | > 100 | > 100 | > 100 | > 100 | – | > 100 | > 100 | > 100 | – | – | – | – | – | – | –
Cc1ccc(S(=O)(=O)N2CCc3cc(O)c([N+](=O)[O-])cc32)cc1 | – | > 100 | > 100 | – | – | > 100 | > 100 | – | > 100 | > 100 | – | – | – | – | – | – | –
O=C1c2cc3c(cc2-c2c1c1cc(F)c(F)cc1c(=O)n2C[C@H](O)CO)OCO3 | – | 0.116 | 0.337 | 8.77 | 4.55 | 0.206 | – | > 100 | > 100 | 0.324 | 0.0307 | 0.0698 | 0.652 | 0.207 | 0.0288 | 0.033 | 0.0317
CN(C)CCN1C(=O)N(CCN(C)C)c2c3cc(O)ccc3nc3c([N+](=O)[O-])ccc1c23 | 42.4 | 26.8 | 33.9 | – | – | 47.9 | 19.1 | 0.807 | – | 23.6 | – | – | – | – | – | – | –
Cn1c(=O)c2[nH]c(Nc3cccc(Cl)c3)nc2n(C)c1=O | > 10 | > 10 | – | > 10 | – | > 10 | – | – | > 10 | > 10 | – | – | – | – | – | – | –
O=C(O)CCSc1ncnc2nc[nH]c12 | > 100 | > 100 | > 100 | > 100 | > 100 | > 100 | > 100 | – | > 100 | > 100 | – | – | – | – | – | – | –
O=c1ccn([C@@H]2C=C(CO)[C@@H](O)[C@H]2O)c(=O)[nH]1 | – | > 625 | > 625 | – | – | > 625 | – | – | – | > 625 | – | – | – | – | – | – | –
O=C1C=CC(=O)c2c(O)c(N3CCN(c4ncccn4)CC3)c(Cl)c(O)c21 | – | 3.79 | 4.03 | 24.8 | 19.8 | 4.4 | 5.42 | 37.8 | 5.5 | 3.43 | – | – | – | – | – | – | –
O=C1CCC(CCc2nc3ccccc3[nH]2)(c2ccccc2)C(=O)N1 (configuration not stated) | > 100 | > 100 | 52.1 | > 100 | > 100 | > 100 | > 100 | > 100 | – | > 100 | – | – | – | – | – | – | –
CC12CCC(=O)[C@@]1(C)CCCC2=O (some centres not stated) | – | – | > 100 | > 100 | > 100 | > 100 | > 100 | > 100 | > 100 | > 100 | – | – | – | – | – | – | –
CN(C)C(=O)/N=C1\SC(=Nc2ccccc2)C(=Nc2ccccc2)N1c1ccc([N+](=O)[O-])cc1 | > 100 | > 100 | > 100 | – | > 100 | > 100 | – | > 100 | > 100 | > 100 | – | – | – | – | – | – | –
CC1=[N+]([O-])C2(CCCC2)N(O)C1(C)C | > 100 | > 100 | > 100 | > 100 | > 100 | > 100 | > 100 | – | – | > 100 | – | – | – | – | – | – | –
O=C1CN(c2ccccc2)C(=O)C1C(=O)Nc1ccc(Cl)c(Cl)c1 (configuration not stated) | – | 13.2 | 11.7 | – | 50.6 | – | 14.8 | 5.87 | 11.7 | 17.1 | – | – | – | – | – | – | –
COc1cccc(Nc2nc3c([nH]2)c(=O)n(C)c(=O)n3C)c1 | > 10 | > 10 | – | > 10 | – | > 10 | – | > 10 | > 10 | > 10 | – | – | – | – | – | – | –
CN1C2CCC1C(CO)C(=O)C2 (configuration not stated) | 54.1 | > 100 | – | – | – | > 100 | > 100 | 75.7 | 59.5 | – | – | – | – | – | – | – | –
CN(C)CN1C(=O)/C(=N\n2c(-c3ccncc3)n[nH]c2=S)c2ccccc21 | – | > 100 | 57 | > 100 | > 100 | > 100 | > 100 | – | 45.4 | > 100 | – | – | – | – | – | – | –

— PubChem BioAssay (NCI)
